Assay [1] deals with CT26 mouse syngeneic colon tumor. Kind of assay: Combination therapy of peptides with doxorubicin in CT26 syngeneic colon tumor model. Type of assay: in vivo. Conditions: flow cytometry, FIG. 6e. The method, then:
(§1) 6-8-week-old WT Balb/c mice were purchased. Mice was cared and maintained under the guidelines of the Institutional Animal Care and Use Committee (IACUC) of Kyungpook National University (2014-0001-8.). Tumor was injected onto the lower right flank of the mice. For the in-vivo homing imaging, the tumor was developed for 7 days, after the tumor size reached to 100 mm^3, the mice were injected with 100 μl of […] Flamma-675 NIR fluorescence dye labelled peptides and allow the complete circulation for an hour. After incubation, the mice were anesthetized, and the image was taken using the IVIS imaging system. […] Tumor size was measured using a digital caliper, and the tumor volume was calculated using the formula (Volume ¼ (L−W−H)/2. (Length: longest dimension, Width: shorter dimension, parallel to the mouse body and Height: perpendicular to the length and width). All mice were checked for the ulceration and at the end of the treatment and the mice were sacrificed for the immune cell analysis.
(§2) Tumors were isolated, minced and incubated with a digestion buffer containing collagenase D (5 mg/ml) with the RPMI-1640 medium at 37° C. for 40 min. […] The single cell suspension was made ready to use and CD45 antibody was used to stain the tumor infiltrating leukocytes and then analyzed with following antibodies for CD4, CD8 and F4/80. […]
(In flow cytometry, cells or beads pass a laser one at a time.)

For another assay, the system named is CT26 syngeneic tumor. Description: Antitumor therapy in CT26 syngeneic mouse model (peptide alone). The assay is classed as in vivo. The note with it: i.v. every alternative day, 24 days, FIG. 5b. Here is the method:
as §1, §2

In another assay the test system is PD-L1 on MDA MB231 cells. Description: Peptide and receptor internalization assay in MDA MB231 cells. The assay is classed as cell-based, human. The note with it: MDA MB231, FIG. 2d. The method, then: MDA MB231, CT26, MCF7, Hek29 cells (1×10^5) were seeded in eight well chamber slides for overnight. Next day, the cells were washed twice with PBS and incubated with 1% BSA at RT for 1 hr to reduce the non-specific binding of peptides. The cells were then incubated with different concentration ([…]) of FITC conjugated peptide for 1 hr at 4° C. After fixation, cells were washed, and counter stained with DAPI, mounted and subjected to confocal microscopy (Zeiss, Oberkochen, Germany). For the peptide internalization assay, the MDA MB231 cells were incubated with […] concentration of FITC-conjugated peptides at 37° C. for 1 hr 30 min, the procedure was then continued as previously described. For the receptor internalization assay, first the internalization of peptide was obtained as described above and then after several washing steps with PBS, the PD-L1 antibody (1:100 dilution) was incubated with the cell for 1 hr 30 min at 37° C. […] For flow cytometry, cells (1×10^6) were harvested and then suspended in the culture medium containing 1% BSA at RT for 1 hr for blocking and then incubated with FITC-labelled PD-L1 for another 1 hr at 4° C. After several washing, 300 ul of cell suspension with PBS was subjected to flow cytometry (BD, Franklin Lakes, N.J.). […]

For CLQKTPKQC [PD-L1Pep-1], the “percentage of CD4+ T cells in tumor tissue, increased value ("to")” value in assay [1] came to 6%. Further, in the assay with CT26 syngeneic tumor, the “tumor volume control compared to control peptide and PBS group” value was “robust effect”.
As to “NSSSVDK (phage coat protein used as control peptide)”, in the assay with PD-L1 on MDA MB231 cells, the “surface PD-L1 antibody staining after peptide internalization (receptor internalization)” value is reported as “did not decrease”.

These data come from patent US11306119B2, “Peptide bound to PD-L1 and use thereof” (KYUNGPOOK NATIONAL UNIVERSITY INDUSTRY-ACADEMIC COOPERATION …, priority 2017, dated 2022).
